{
  "source": "patent US20130266625A1",
  "about": "(YISSUM RESEARCH DEVELOPMENT COMPANY OF THE HEBREW …, priority 2011, published 2013)",
  "origin": "cited, not measured here",
  "key": {"[1]": {"settings": "50 mg/day over one year"}, "[2]": {"tested_on": "procollagen alpha1 (I), MMP-1 and TIMP-1 expression in skin", "settings": "5% in ethanol:olive oil (1:2), 12 times over 4 weeks"}, "[3]": {"tested_on": "cultured dermal fibroblasts"}},
  "data": [
    {"smiles": "C[C@]12CC[C@H](O)CC1=CC[C@@H]1[C@@H]2CC[C@]2(C)C(=O)CC[C@@H]12", "note": "[DHEA, dehydroepiandrosterone]", "values": [
      {"measurement": "harmful consequences", "setting": "[1]", "result": "no harmful consequences were observed"},
      {"measurement": "skin status (hydration, epidermal thickness, sebum production, skin pigmentation)", "setting": "[1]; individuals aged 60 years and over", "result": "improvement of the skin status"},
      {"measurement": "basal expression of MMP-1 mRNA and protein", "setting": "[2]", "result": "significantly decreased"},
      {"measurement": "expression of procollagen alpha1 (I) mRNA and protein", "setting": "[2]; aged and young skin", "result": "significantly increase"},
      {"measurement": "expression of TIMP-1 protein", "setting": "[2]; aged skin", "result": "increased"},
      {"measurement": "matrix metalloproteinase (MMP)-1 synthesis", "setting": "[3]", "result": "decreasing"},
      {"measurement": "procollagen synthesis", "setting": "[3]", "result": "increase procollagen synthesis"},
      {"measurement": "tissue inhibitor of matrix metalloprotease (TIMP-1) production", "setting": "[3]", "result": "increasing"}
    ]}
  ]
}
